Marks after values point to notes of the source that are not given here.
How the values were obtained:
[1] = test system: TNF-α; test: Local TNF-α level in the arteries of apoE-/- mice (Millipore liquid phase chip); assay type: in vivo, mouse; settings: high-fat diet, intragastric 15 weeks, compounds 30 mg/(kg·d), simvastatin 10 mg/(kg·d), x ± s, n = 5, saline control 25.58 ± 6.44
Method in brief: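 Male apoE−/− mice on a high-fat diet (0.15% cholesterol, 21% lard) for 25 weeks received compound at 30 mg/(kg·d) intragastrically from week 10 for 15 weeks (n=5). Arterial TNF-α was then measured with a magnetic bead cytokine panel. Groups were compared by one-way ANOVA.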

[2] = test system: RAW264.7 cell-derived foam cells; test: Formation of RAW264.7 cell-derived foam cells (ox-LDL, oil red O, absorbance 490 nm); assay type: cell-based, mouse; settings: 48 hours, model group = 100%, x ± s, n = 3
Method in brief: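 RAW264.7 foam cells, induced with 60 mg/L ox-LDL for 48 h, were treated 48 h with compound at 10 or 30 μmol/L in saline, in triplicate wells. Lipid was stained with oil red O, extracted in isopropanol and read at 490 nm. Values are cell-number-corrected lipid content as % of the model group.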

[3] = test system: apoE−/− mice; test: Blood lipids (LDL-C, HDL-C) in apoE-/- mice on high-fat diet; assay type: in vivo, mouse; settings: apoE-/- mice serum, intragastric 15 weeks, compounds 30 mg/(kg·d), simvastatin 10 mg/(kg·d), x ± s; for HDL-C: n = 5, saline control 3.74 ± 0.62; for LDL-C: n = 5, saline control 7.33 ± 1.03
Method in brief: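 Male apoE−/− mice (ten weeks old) on high-fat diet (0.15% cholesterol, 21% lard) for 25 weeks; from week 10, compounds given intragastrically at 30 mg/(kg·d) for 15 weeks (n=5). Serum TC, LDL-C and HDL-C measured on an automatic biochemical analyzer; one-way ANOVA, p<0.05.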

[4] = test system: apoE−/− mice; test: Atherosclerotic plaque area to total aortic area in apoE-/- mice on high-fat diet (Sudan IV staining); assay type: in vivo, mouse; settings: intragastric 15 weeks, compounds 30 mg/(kg·d), simvastatin 10 mg/(kg·d), x ± s, n = 5, saline control 14.67 ± 3.58
Method in brief: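 Male apoE−/− mice, 10 weeks old, ate a high-fat diet (0.15% cholesterol, 21% lard) for 25 weeks and received compounds intragastrically at 30 mg/(kg·d) for 15 weeks from week 10 (n=5). Aortas from root to abdominal bifurcation were formalin-fixed and Sudan IV-stained. Lesion area was expressed as percent of total aortic area.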

[5] = test system: RAW264.7 cells; test: RAW264.7 cell survival rate by CCK8 method; assay type: cell-based, mouse; settings: compound 10 prnol/L, 0.1% DMSO, CCK8, x ± s, n = 3, normal saline control = 1
Method in brief: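 Mouse macrophage RAW264.7 cells exposed to compounds at 10 […] in medium containing 0.1% DMSO final, alongside a 0.1% DMSO saline control. Survival measured by CCK8, given as x±s, with groups compared by one-way ANOVA (p<0.05).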

Compound	TNF-α level (ng/g) [1]	Foam cell formation (%) ([2]; dose 10 μmol/L)	Foam cell formation (%) ([2]; dose 30 μmol/L)	HDL-C [3]	LDL-C [3]	Plaque area/total aorta area (%) [4]	Cell Survival Rate [5]
CCOC(=O)CCNCCC[C@](C)(OC(C)=O)C1CC[C@]2(C)[C@@H]1C(OC(C)=O)CC1[C@@]3(C)CC[C@H](OC(C)=O)C(C)(C)C3CC[C@]12C (stereo partly drawn) [Compound 25]	11.65 ± 5.45 ^a ng/g	62 ± 18 ^a %	44 ± 15 ^a %	5.14 ± 0.87 ^a mmol/L	4.82 ± 1.54 ^a mmol/L	8.33 ± 2.44 ^a %	0.98 ± 0.07
CCOC(=O)C(NCCCCC[C@](C)(OC(C)=O)C1CC[C@]2(C)[C@@H]1C(OC(C)=O)CC1[C@@]3(C)CC[C@H](OC(C)=O)C(C)(C)C3CC[C@]12C)C(C)OCC (stereo partly drawn) [Compound 26]	16.02 ± 3.11 ^a ng/g	83 ± 21%	72 ± 18 ^a %	4.45 ± 0.62 ^a mmol/L	6.28 ± 0.84 mmol/L	9.78 ± 3.17 ^a %	0.94 ± 0.05
COC(=O)[C@H](Cc1ccccc1)NCCC[C@](C)(OC(C)=O)C1CC[C@]2(C)[C@@H]1C(OC(C)=O)CC1[C@@]3(C)CC[C@H](OC(C)=O)C(C)(C)C3CC[C@]12C (stereo partly drawn) [Compound 27]	17.95 ± 2.15 ^a ng/g	76 ± 12 ^a %	65 ± 18 ^a %	4.37 ± 0.56 ^a mmol/L	5.55 ± 1.06 ^a mmol/L	10.65 ± 3.82 ^a %	0.87 ± 0.04
COC(=O)[C@@H](Cc1ccc(O)cc1)NCCC[C@](C)(OC(C)=O)C1CC[C@]2(C)[C@@H]1C(OC(C)=O)CC1[C@@]3(C)CC[C@H](OC(C)=O)C(C)(C)C3CC[C@]12C (stereo partly drawn) [Compound 28]	11.84 ± 2.91 ^a ng/g	63 ± 11 ^a %	45 ± 16 ^a %	5.55 ± 0.63 ^a mmol/L	4.59 ± 1.62 ^a mmol/L	8.18 ± 2.89 ^a %	0.89 ± 0.04
COC(=O)[C@H](Cc1c[nH]cn1)NCCC[C@](C)(OC(C)=O)C1CC[C@]2(C)[C@@H]1C(OC(C)=O)CC1[C@@]3(C)CC[C@H](OC(C)=O)C(C)(C)C3CC[C@]12C (stereo partly drawn) [Compound 29]	14.93 ± 3.67 ^a ng/g	85 ± 10%	72 ± 18 ^a %	4.10 ± 0.78 ^a mmol/L	6.27 ± 1.59 mmol/L	9.67 ± 2.51 ^a %	1.00 ± 0.16
COC(=O)[C@H](Cc1c[nH]c2ccccc12)NCCC[C@](C)(OC(C)=O)C1CC[C@]2(C)[C@@H]1C(OC(C)=O)CC1[C@@]3(C)CC[C@H](OC(C)=O)C(C)(C)C3CC[C@]12C (stereo partly drawn) [Compound 30]	16.11 ± 4.19 ^a ng/g	78 ± 12 ^a %	64 ± 13 ^a %	4.42 ± 0.57 ^a mmol/L	6.37 ± 0.75 mmol/L	9.99 ± 3.68 ^a %	0.95 ± 0.09
